Measurements published in patent US6518317B1, “Antiviral agents” (priority 1997, dated 2003).

Key:
[1] = tested on: 70 kd heat shock proteins; assay: Expression of 70 kd heat shock proteins in HeLa cells (SDS-PAGE and blotting); type: cell-based; design: key: +++: the sign “+” shows the potency of signals of the 70 kd heat shock proteins observed in the blotting the more the numbers of +, the more potent the signals; ++: the sign “+” shows the potency of signals of the 70 kd heat shock proteins observed in the blotting the more the numbers of +, the more potent the signals; the sign “+” shows the potency of signals of the 70 kd heat shock proteins observed in the blotting the more the numbers of +, the more potent the signals; The sign “±” means that the signal was very weak; conditions: six hours
Protocol: The medium was discarded, 1 ml of 10% trichloroacetic acid was added to each of the wells and the cells were recovered by a scraper.
The cells prepared as such were subjected to an SDS-PAGE and a blotting according to a method of Example 1 to detect the expression of 70 kd heat shock proteins.
As a result, induction of the 70 kd heat shock proteins noted in the sections to which the cyclopentenone of from 5 μM to 40 μM was added. […] The sign “±” means that the signal was very weak.

[2] = Single oral administration toxicity in rats; type: in vivo; conditions: single oral administration of 100 mg/kg
HIV-1IIIB = assay: p24 antigen in supernatant liquid of CEM-3B culture; type: cell-based; conditions: three days
Protocol: The cyclopentenone (1-5 μM) was added to CEM-SS cells infected by HIV-1IIIB (abbreviated as CEM-3B) or to H9 cells infected by HIV-1IIIB (abbreviated as H9-3B) and incubated for three days. In both cells, 90% or more of the cells were infected by HIV-1IIIB. Numbers of living and dead cells were counted and the survival rate of the cells was calculated therefrom.
Concentration of the p24 antigen contained in the supernatant liquid of the culture after incubation for three days in the case of Example 5-(2) was measured. The result was that the concentration of p24 decreased corresponding to the centration of the cyclopentenone added thereto whereupon the anti-HIV action was noted. In Table 10, the figures in parentheses are the ratio of each of the supernatant liquid of the cell cultures (when none of the cyclopentenone was added) to the concentration of p24 expressed in terms of %.

[3] = tested on: heat shock protein of 70 kDa; assay: Induction of heat shock protein of 70 kDa in HL-60 cells (SDS-PAGE and blotting); type: cell-based, human; design: key to Induction of Heat Shock Proteins: +++: “+” indicates degree of intensity of induction and the more the numbers of “+”, the more the intensity of induction; ++: “+” indicates degree of intensity of induction and the more the numbers of “+”, the more the intensity of induction; “+” indicates degree of intensity of induction and the more the numbers of “+”, the more the intensity of induction; “±” means the induction was slight; “−” means that no induction was noted; conditions: for Induction of Heat Shock Proteins: HL-60 cells, eight hours
Protocol: (1) An RPMI 1640 medium (5 ml) containing 10% of fetal bovine serum which contained 2×10^5 cells/ml of human promyelocytic leukemia cells HL-60 (ATCC CCL-240) was placed in each well of a six-well plate, incubated at 37° C. for 24 hours in the presence of 5% of CO2, then the cyclopentenone described in the referential example L was added thereto to make its final concentration 0, 10, 20, 30, 40, 50, or 100 μM and the incubation was further continued for eight hours more.
After completion of the incubation, cell numbers were counted and the cells were recovered by centrifugation and washed with phosphate-buffered saline (PBS) to prepare cyclopentenone-treated cells. In the meanwhile, cells which were heated at 45° C. for ten minutes followed by subjecting to the same incubation were prepared as well.
The cells treated as such were subjected to an SDS-polyacrylamid gel electrophoresis (SDS-PAGE) by a method mentioned in “Molecular Cloning” [Cold Spring Harbor Laboratory Press, (1989)]. The treated cells were suspended in an SDS-PAGE sample buffer to make the concentration 2.5×10^6 cells/ml, the resulting cell suspension was treated at 100° C. for ten minutes and each 5 μl thereof was applied to two sheets of SDS-PAGE gels (5% stacking gel; 10% separation gel) to conduct anelectrophoresis. One of the gels was Coomassie stained while another gel was subjected to a blotting to a polyvinylidene difluoride transfer membrane (Immobilon™, manufactured by Millipore, catalog no. IPVH000-10). The membrane was subjected to a blocking at 4° C. for one night with Block Ace (manufactured by Dainippon Pharmaceutical; catalog no. UK-B25).
The blocked membrane was made to react with monoclonal antibody HSP 72/73 (Ab-1) (manufactured by Oncogene Research Products, catalog no. HSP01) which would specifically react with heat-induced heat shock protein of 70 kDa and washed with TBS containing 0.05% of Tween 20 followed by further washing with TBS. After that, it was made to react with peroxidase-compounded secondary antibody HRP-Rabbit Anti-Mouse IgG (H+L) (manufactured by Zymed Laboratories, catalog no. 61-6520) and washed by the same manner as in the above operation. The membranes which were treated with primary and secondary antibodies as such were made to react with Renaissance™ (a chemiluminor reagent manufactured by Dupont NEN, catalog no. NEL-100) and photosensitized with an X-ray film to confirm the induction of heat shock protein of 70 kDa.
The result was that, by addition of cyclopentenone (20 to 30 μM), induction of heat shock protein of 70 kDa which is almost same as heat-treated at 45° C. for 10 minutes was confirmed. In Table 1, “+” indicates degree of intensity of induction and the more the numbers of “+”, the more the intensity of induction. Incidentally, “−” means that no induction was noted and “±” means the induction was slight.

Ad5 dlX [an adenovirus] = assay: Adenovirus hexon protein in HeLa cells treated with cyclopentenone before infection; type: cell-based; conditions: 10 μM or higher, six hours before infection, m.o.i. 50, 20 hours
Protocol: After that, the cells were washed with the DMEM containing 5% of fetal bovine serum, then the DMEM containing 5% of fetal bovine serum which contained Ad5 dlX [an adenovirus; Saito, etal.; Journal ofVirology, volume 54, pages 711-719 (1985)] was added to the cells so that the cells were infected therewith and incubation was conducted for 20 hours. […] The medium was discarded, 1 ml of 10% trichloroacetic acid was added to each of the wells and the cells were recovered by a scraper.
Then SDS-PAGE and blotting of the treated cells obtained hereinabove were conducted by the method of Example 1 to detect the expression of hexon proteins of the adenovirus. Incidentally, anti-adenovirus hexon antibody (AB 1056; manufactured by Chemicon International Inc.) was used as the primary antibody.

NIH3T3/Y-1 = assay: Colony formation of control-vector cell strain NIH3T3/Y-1; conditions: 5 μM, nine days, NIH3T3/Y-1, three runs

## O=C1C=CC(O)C1O (stereo not shown) [cyclopentenone, 4,5-dihydroxy-2-cyclopenten-1-one]
[1]; 5 μM
  Amount of 70 kd of Heat Shock Proteins: +
[1]; 10 μM
  Amount of 70 kd of Heat Shock Proteins: ++
[1]; 20 μM
  Amount of 70 kd of Heat Shock Proteins: +++
[1]; 40 μM
  Amount of 70 kd of Heat Shock Proteins: +++
[2]
  dead cases: no dead case
HIV-1IIIB; 1 μM
  Concentration of p24 in Supernatant Liquid of the cell cultures: 232 ng/mL
  ratio to the concentration of p24 when none of the cyclopentenone was added: 83%
HIV-1IIIB; 3 μM
  Concentration of p24 in Supernatant Liquid of the cell cultures: 176 ng/mL
  ratio to the concentration of p24 when none of the cyclopentenone was added: 63%
HIV-1IIIB; 5 μM
  Concentration of p24 in Supernatant Liquid of the cell cultures: 175 ng/mL
  ratio to the concentration of p24 when none of the cyclopentenone was added: 63%
[3]
  concentration at which the ability for inducing HSP70 becomes maximum: 20 to 30 µM
  concentration at which the ability for inducing HSP70 is noted: 10 µM
[3]; 10 μM
  Induction of Heat Shock Proteins: +
[3]; 20 μM
  Induction of Heat Shock Proteins: +++
[3]; 30 μM
  Induction of Heat Shock Proteins: +++
[3]; 40 μM
  Induction of Heat Shock Proteins: ++
[3]; 50 μM
  Induction of Heat Shock Proteins: +
[3]; 100 μM
  Induction of Heat Shock Proteins: ±
[3]; compared in molar concentration
  ability inducing the HSP70 compared with prostaglandin A1: equivalent
Ad5 dlX [an adenovirus]
  amount of the hexon protein compared with the control: apparently decreased
NIH3T3/Y-1
  Numbers (average ± SD) of the Colonies: 71.3 ± 2.3
